Consider 11 compounds from patent US20130165475A1, “DEUTERIUM-ENRICHED HETEROCYCLIC COMPOUNDS AS KINASE INHIBITORS” (ASCEPION PHARMACEUTICALS, INC., priority 2010, published 2013).

The test system of one data set is Mouse liver microsome. Kind of data set: Liver microsomal stability assay, mouse. The format is in vitro ADME. As to conditions: 40 μM, 37° C., 30 min, 1 mg/ml microsome proteins; class relative to deuterium non-enriched counterpart. Set-up: key: A: the percentage of a compound remains is greater than that of its deuterium non-enriched counterpart; B: a result otherwise. As for the experimental part: (§1) A standard liver microsomal stability assay can be used to test or screen the compounds of this invention and to identify compounds with enhanced metabolic stability due to the enrichment of deuterium in the compounds. Liver microsome proteins prepared from different species such as mouse and rat were obtained from a commercial source (Research Institute for Liver Diseases, Shanghai, China). The assay was conducted in 1.5% potassium hydrogenphosphate (K2HPO4) in the presence of liver microsome proteins at 1 mg/ml and supplemented with an […] (3.3 mM NADPH, 3.3 mM glucose-6-phosphate, 6 units/ml G6PDase, and 3.3 mM magnesium chloride). Test compound was added into the assay mixture to a final concentration of 40 μM and incubated at 37° C. for 0 or 30 minutes. The reaction was stopped by the addition of 20 μM Bifonazole/CAN. Samples were then centrifuged at 14000 rpm for 10 minutes to precipitate proteins. Supernatant were then transferred to microcentrifuge tubes and subject to reverse phase HPLC analysis to determine the concentration of test compound.
(§2) The percentage of compounds that remained in the assay reactions after a thirty-minute incubation at 37° C. is calculated as the ratio between the amount of compound remained after a thirty-minute and that after a zero-minute incubation.
Background: Liver microsomes are vesicles of endoplasmic reticulum, rich in cytochrome P450 enzymes.

A further data set concerns Rat liver microsome. Kind of data set: Liver microsomal stability assay, rat. As to conditions: 40 μM, 37° C., 30 min, 1 mg/ml microsome proteins; class relative to deuterium non-enriched counterpart. It counts as in vitro ADME. Set-up: key: A: the percentage of a compound remains is greater than that of its deuterium non-enriched counterpart; B: a result otherwise. As for the experimental part: as §1, §2

Another data set concerns the target T1, EphB4 (Homo sapiens, UniProt P54760).
T1 construct: EphB4 autophosphorylation in PC-3 human prostate cancer cells; host or cells: PC-3 human prostate cancer cells
T1 sequence (P54760 16-987): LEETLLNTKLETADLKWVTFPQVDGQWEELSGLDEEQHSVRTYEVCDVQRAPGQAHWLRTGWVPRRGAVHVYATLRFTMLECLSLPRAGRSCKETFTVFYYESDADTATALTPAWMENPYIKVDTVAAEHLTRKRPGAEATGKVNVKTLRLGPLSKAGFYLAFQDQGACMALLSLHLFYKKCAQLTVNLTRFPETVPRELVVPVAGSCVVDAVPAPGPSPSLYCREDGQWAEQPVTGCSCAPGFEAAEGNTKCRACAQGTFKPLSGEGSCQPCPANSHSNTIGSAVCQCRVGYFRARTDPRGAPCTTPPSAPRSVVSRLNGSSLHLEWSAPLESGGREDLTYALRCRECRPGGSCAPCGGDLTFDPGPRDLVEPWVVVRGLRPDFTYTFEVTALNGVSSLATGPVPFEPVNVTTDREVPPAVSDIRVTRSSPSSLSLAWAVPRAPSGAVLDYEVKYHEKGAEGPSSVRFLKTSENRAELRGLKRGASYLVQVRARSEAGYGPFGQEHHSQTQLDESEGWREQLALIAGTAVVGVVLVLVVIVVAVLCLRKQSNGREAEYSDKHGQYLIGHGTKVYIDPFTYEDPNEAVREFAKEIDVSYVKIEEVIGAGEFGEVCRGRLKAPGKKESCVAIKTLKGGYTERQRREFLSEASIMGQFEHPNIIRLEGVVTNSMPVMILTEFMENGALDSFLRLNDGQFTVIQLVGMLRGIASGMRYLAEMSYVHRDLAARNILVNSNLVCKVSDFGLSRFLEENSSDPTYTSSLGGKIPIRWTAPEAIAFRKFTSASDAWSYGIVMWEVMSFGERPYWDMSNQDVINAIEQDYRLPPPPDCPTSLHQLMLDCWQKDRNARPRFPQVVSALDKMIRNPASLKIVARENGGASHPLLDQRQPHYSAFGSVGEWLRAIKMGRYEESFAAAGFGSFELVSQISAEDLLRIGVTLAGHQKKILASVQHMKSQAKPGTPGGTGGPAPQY
As to the kind of experiment: EphB4 cell-based assay (quantitative Western blotting, PC-3 cells, Ephrin-B2 stimulated). Particulars: compound at 100 nM; PC-3 human prostate cancer cells; Ephrin-B2 stimulation; read-out: % EphB4 kinase activity remains. An excerpt:
A standard image-based quantitative Western blotting assay for EphB4 kinase activity can be used to test or screen the compounds of this invention and to identify EphB4 antagonists.
The kinase activity of EphB4 in cells depends on its autophosphorylation level stimulated by the binding to its ligand Ephrin-B2. High level of EphB4 autophosphorylation in PC-3 human prostate cancer cells (ATCC, USA) induced by the application of Ephrin-B2 to the cell culture can be observed by regular Western blotting assay.
A compound to be tested was first dissolved in DMSO to a concentration of 10 mM and stored at −20° C. On the day of screening procedure, the compound in DMSO was added into DMEM medium to a final concentration of 100 nM. Two hours later, Ephrin-B2 ([…]) was added into DMEM medium to stimulate the production of phosphor-EphB4. The phosphor-EphB4 was detected based on its molecular weight and with anti-phosphor protein antibody PY-20 in cell lysate from approximately 5×10^5 PC-3 cells by Western blotting followed by imaging quantification. The relative level of EphB4 kinase activity was quantified as the ratio between the amount of phosphor-EphB4 and that of total Actin proteins.
Background: In western blotting, separated proteins are transferred to a membrane and probed.

A further data set has as its target T2, VEGFR2 (Homo sapiens, UniProt P35968).
T2 construct: expressed in transfected cells; host or cells: CHO cells
As to the kind of experiment: VEGFR2 cell-based assay (ELISA, phosphor-/total VEGFR2 in transfected CHO cells). As to conditions: compound at 100 nM; CHO cells transfected with full length VEGFR2; FBS stimulation; read-out: % VEGFR2 kinase activity remains. An excerpt: A standard cell-based assay for VEGFR2 kinase activity can be used to test or screen the compounds of this invention and to identify VEGFR2 antagonists. In this example, ELISA kits (R&D Systems, Inc., Minneapolis, Minn. 55413, USA) were used.
The activity of VEGFR2 in cells depended on its autophosphorylation level by various factors including growth factors. In order to induce the cell to produce VEGFR2, full length of VEGFR2 sequence was cloned into PC-DNA3.1 vector, the plasmid was then transfected into CHO cells. After 48 hours, the expression of VEGFR2 in transfected CHO cells was confirmed by regular western blotting.
A compound to be tested was first dissolved in DMSO to a concentration of 10 mM and stored at −20° C. One day before the test, CHO cells transfected with full length VEGFR2 plasmid were grown in Dulbecco's Modified Eagle Medium (DMEM) without the presence of serum. On the day of the test, the compounds with various concentrations in DMSO (from 0.5 nM to 500 nM) were added into DMEM. Two hours later, 20% of FBS (Fetal Bovine Serum) was added into the medium to stimulate the production of phosphor-VEGFR2. Cell lysate from approximately 5×10^5 transfected CHO cells were reacted with anti-phosphor VEGFR2 or anti-total VEGFR2 antibody in 96-well plates, in the presence of detection antibody. The phosphor-VEGFR2 or total VEGFR2 were detected with Streptavidin-HRP(R&D Systems), followed by chemiluminescent detection. The level of VEGFR2 kinase activity was quantified as the ratio between the amount of phosphor- and that of total VEGFR2 proteins.

Counter-ions that a name gives are not always drawn.

T2 sequence (P35968 20-1356): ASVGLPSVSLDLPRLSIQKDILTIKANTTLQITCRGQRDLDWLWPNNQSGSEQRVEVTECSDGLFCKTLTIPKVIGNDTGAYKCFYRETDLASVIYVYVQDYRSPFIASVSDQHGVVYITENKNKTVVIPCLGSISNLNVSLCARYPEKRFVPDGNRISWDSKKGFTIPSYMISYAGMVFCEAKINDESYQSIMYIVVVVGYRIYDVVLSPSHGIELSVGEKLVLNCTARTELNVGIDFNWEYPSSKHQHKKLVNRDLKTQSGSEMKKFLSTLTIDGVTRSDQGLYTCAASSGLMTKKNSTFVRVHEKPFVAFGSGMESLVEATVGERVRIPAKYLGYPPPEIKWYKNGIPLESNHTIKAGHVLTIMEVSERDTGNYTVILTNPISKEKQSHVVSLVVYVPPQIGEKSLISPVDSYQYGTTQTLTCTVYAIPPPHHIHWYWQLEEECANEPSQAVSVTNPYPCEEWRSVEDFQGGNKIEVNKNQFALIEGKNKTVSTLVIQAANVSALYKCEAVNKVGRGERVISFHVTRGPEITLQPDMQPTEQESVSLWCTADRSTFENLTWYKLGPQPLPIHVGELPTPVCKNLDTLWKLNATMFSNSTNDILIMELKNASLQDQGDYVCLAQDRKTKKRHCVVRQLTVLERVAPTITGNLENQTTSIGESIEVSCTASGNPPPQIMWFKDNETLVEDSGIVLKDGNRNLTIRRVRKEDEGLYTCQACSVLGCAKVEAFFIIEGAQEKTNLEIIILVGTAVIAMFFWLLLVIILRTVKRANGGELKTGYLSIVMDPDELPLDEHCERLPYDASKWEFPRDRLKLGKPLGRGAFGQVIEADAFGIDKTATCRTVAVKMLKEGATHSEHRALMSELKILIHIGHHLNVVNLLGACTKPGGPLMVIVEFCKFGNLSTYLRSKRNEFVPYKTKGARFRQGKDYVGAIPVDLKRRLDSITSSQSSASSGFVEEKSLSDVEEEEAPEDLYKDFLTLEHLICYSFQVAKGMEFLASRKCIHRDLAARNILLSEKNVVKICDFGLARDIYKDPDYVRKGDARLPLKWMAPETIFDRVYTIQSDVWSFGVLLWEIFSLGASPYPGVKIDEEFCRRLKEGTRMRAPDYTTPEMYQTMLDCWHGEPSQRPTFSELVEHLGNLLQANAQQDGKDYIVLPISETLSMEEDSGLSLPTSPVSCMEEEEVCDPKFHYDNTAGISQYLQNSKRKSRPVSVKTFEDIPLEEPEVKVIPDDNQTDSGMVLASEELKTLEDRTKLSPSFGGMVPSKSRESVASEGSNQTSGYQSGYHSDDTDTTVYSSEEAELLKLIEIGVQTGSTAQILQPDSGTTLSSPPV

Regarding `[2H]C([2H])(c1ccnc2[nH]ccc12)N1CCc2c(NC(=O)Nc3cc(Cl)ccc3F)cccc21` [Example 11, 1-(5-Chloro-2-fluorophenyl)-3-[1-[dideuterio(1H-pyrrolo[2,3-b]pyridin-4-yl)methyl]indolin-4-yl]urea hydrochloride], the “% of compound remained at the 30th minutes, Mouse liver microsome” value in the data set with Mouse liver microsome is “B”. Moreover, the “% of compound remained at the 30th minutes, Rat liver microsome” value (“% of compound remained … Rat liver microsome” below) in the data set with Rat liver microsome is on record as “B”. In addition, the remaining activity at 0.1 µM on EphB4 and at VEGFR2 was under 70% each time.

In the case of `[2H]C([2H])(c1ccnc2[nH]ccc12)n1ccc2c(NC(=O)Nc3cc(Cl)ccc3F)cccc21` [Example 12, 1-(5-chloro-2-fluorophenyl)-3-[1-[dideuterio(1H-pyrrolo[2,3-b]pyridin-4-yl)methyl]indol-4-yl]urea hydrochloride], the “% of compound remained at the 30th minutes, Mouse liver microsome” value with Mouse liver microsome was “B”. Besides, the “% of compound remained … Rat liver microsome” value in the data set with Rat liver microsome is listed as “A”. For the same compound, the remaining activity at 0.1 µM on EphB4 and on VEGFR2 was under 70% in each case.

`[2H]C([2H])(c1ccnc2[nH]ccc12)N1CCc2c(NC(=O)Nc3cccc(C)c3)cccc21` [Example 13, 1-[1-[Dideuterio(1H-pyrrolo[2,3-b]pyridin-4-yl)methyl]indolin-4-yl]-3-(m-tolyl)urea hydrochloride]: the “% of compound remained at the 30th minutes, Mouse liver microsome” value with Mouse liver microsome was “A”. For the same compound, the “% of compound remained … Rat liver microsome” value with Rat liver microsome was “A”. The figures for the remaining activity at 0.1 µM on EphB4 and at VEGFR2 were at least 70% and under 70%, respectively.

For the compound `[2H]C([2H])(c1ccnc2[nH]ccc12)n1ccc2c(NC(=O)Nc3cccc(C)c3)cccc21` [Example 14, 1-[1-[dideuterio(1H-pyrrolo[2,3-b]pyridin-4-yl)methyl]indol-4-yl]-3-(m-tolyl)urea hydrochloride], in the data set with Mouse liver microsome, the “% of compound remained at the 30th minutes, Mouse liver microsome” value was “A”. Moreover, the “% of compound remained … Rat liver microsome” value in the data set with Rat liver microsome is “A”. For the same compound, the remaining activity at 0.1 µM on EphB4 and at VEGFR2 was under 70% throughout.

In the case of `[2H]C(c1c[nH]c2ncccc12)N1CCc2c(NC(=O)Nc3cc(Cl)ccc3OC([2H])([2H])[2H])cccc21` (centres unmarked) [Example 15, 1-[5-Chloro-2-(trideuteriomethoxy)phenyl]-3-[1-[deuterio(1H-pyrrolo[2,3-b]pyridin-3-yl)methyl]indolin-4-yl]urea], the “% of compound remained at the 30th minutes, Mouse liver microsome” value with Mouse liver microsome is reported as “B”. Further, the “% of compound remained … Rat liver microsome” value in the data set on Rat liver microsome is given as “A”. Further, the figures for the remaining activity at 0.1 µM on EphB4 and at VEGFR2 were at least 70% and under 70%, respectively.

For `[2H]C(c1c[nH]c2ncccc12)n1ccc2c(NC(=O)Nc3cc(Cl)ccc3OC([2H])([2H])[2H])cccc21` (centres unmarked) [Example 16, 1-[5-chloro-2-(trideuteriomethoxy)phenyl]-3-[1-[deuterio(1H-pyrrolo[2,3-b]pyridin-3-yl)methyl]indol-4-yl]urea], the “% of compound remained at the 30th minutes, Mouse liver microsome” value with Mouse liver microsome is “A”. For the same compound, the “% of compound remained … Rat liver microsome” value in the data set with Rat liver microsome is given as “A”. The remaining activity at 0.1 µM on EphB4 was at least 70%; at VEGFR2, under 70%.

With `[2H]C(c1c[nH]c2ncccc12)N1CCc2c(NC(=O)Nc3cc(Cl)ccc3OC)cccc21` (centres unmarked) [Example 17, 1-(5-Chloro-2-methoxyphenyl)-3-[1-[deuterio(1H-pyrrolo[2,3-b]pyridin-3-yl)methyl]indolin-4-yl]urea], the “% of compound remained at the 30th minutes, Mouse liver microsome” value with Mouse liver microsome is “A”. The “% of compound remained … Rat liver microsome” value in the data set with Rat liver microsome was “A”. The remaining activity at 0.1 µM on EphB4 and on VEGFR2 was under 70% each time.

As to `[2H]C(c1c[nH]c2ncccc12)n1ccc2c(NC(=O)Nc3cc(Cl)ccc3OC)cccc21` (centres unmarked) [Example 18, 1-(5-chloro-2-methoxyphenyl)-3-[1-[deuterio(1H-pyrrolo[2,3-b]pyridin-3-yl)methyl]indol-4-yl]urea], the “% of compound remained at the 30th minutes, Mouse liver microsome” value in the data set on Mouse liver microsome is recorded as “A”. The “% of compound remained … Rat liver microsome” value in the data set on Rat liver microsome is “A”. Besides, the remaining activity at 0.1 µM on EphB4 and on VEGFR2 was under 70% in each case.

For the compound `[2H]C(c1c[nH]c2ncccc12)N1CCc2c(NC(=O)Nc3cc(Cl)ccc3F)cccc21` (centres unmarked) [Example 19, 1-(5-Chloro-2-fluorophenyl)-3-[1-[deuterio(1H-pyrrolo[2,3-b]pyridin-3-yl)methyl]indolin-4-yl]urea], the “% of compound remained at the 30th minutes, Mouse liver microsome” value in the data set on Mouse liver microsome is reported as “B”. For the same compound, in the data set with Rat liver microsome, the “% of compound remained … Rat liver microsome” value is given as “B”. Moreover, the figures for the remaining activity at 0.1 µM on EphB4 and at VEGFR2 were at least 70% and under 70%, respectively.

With `[2H]C(c1c[nH]c2ncccc12)n1ccc2c(NC(=O)Nc3cc(Cl)ccc3F)cccc21` (centres unmarked) [Example 20, 1-(5-chloro-2-fluorophenyl)-3-[1-[deuterio(1H-pyrrolo[2,3-b]pyridin-3-yl)methyl]indol-4-yl]urea], in the data set with Mouse liver microsome, the “% of compound remained at the 30th minutes, Mouse liver microsome” value is listed as “B”. The “% of compound remained … Rat liver microsome” value with Rat liver microsome is “A”. Moreover, the remaining activity at 0.1 µM on EphB4 was at least 70%; on VEGFR2, under 70%.

Take `[2H]C(c1c[nH]c2ncccc12)N1CCc2c(NC(=O)Nc3cccc(C)c3)cccc21` (centres unmarked) [Example 21, 1-[1-[Deuterio(1H-pyrrolo[2,3-b]pyridin-3-yl)methyl]indolin-4-yl]-3-(m-tolyl)urea]: the “% of compound remained at the 30th minutes, Mouse liver microsome” value in the data set with Mouse liver microsome is “A”. Moreover, the “% of compound remained … Rat liver microsome” value in the data set on Rat liver microsome was “A”. Also, the remaining activity at 0.1 µM on EphB4 was at least 70%; at VEGFR2, under 70%.
